Assay results published in patent US10112933B2, “Methods and compositions for treatment of fibrosis” (Baylor College of Medicine, priority 2013, dated 2018).

The molecules below were run against T1, Stat1 (pY701) (Homo sapiens, UniProt P42224) (assay: Immunoblot: IFN-γ-mediated phosphorylation of Stat1 in HepG2 cells). Conditions: HepG2, compound 300 μM, 1 hour.
T1 construct: endogenous in cells; host or cells: HepG2
T1 sequence (P42224 1-750): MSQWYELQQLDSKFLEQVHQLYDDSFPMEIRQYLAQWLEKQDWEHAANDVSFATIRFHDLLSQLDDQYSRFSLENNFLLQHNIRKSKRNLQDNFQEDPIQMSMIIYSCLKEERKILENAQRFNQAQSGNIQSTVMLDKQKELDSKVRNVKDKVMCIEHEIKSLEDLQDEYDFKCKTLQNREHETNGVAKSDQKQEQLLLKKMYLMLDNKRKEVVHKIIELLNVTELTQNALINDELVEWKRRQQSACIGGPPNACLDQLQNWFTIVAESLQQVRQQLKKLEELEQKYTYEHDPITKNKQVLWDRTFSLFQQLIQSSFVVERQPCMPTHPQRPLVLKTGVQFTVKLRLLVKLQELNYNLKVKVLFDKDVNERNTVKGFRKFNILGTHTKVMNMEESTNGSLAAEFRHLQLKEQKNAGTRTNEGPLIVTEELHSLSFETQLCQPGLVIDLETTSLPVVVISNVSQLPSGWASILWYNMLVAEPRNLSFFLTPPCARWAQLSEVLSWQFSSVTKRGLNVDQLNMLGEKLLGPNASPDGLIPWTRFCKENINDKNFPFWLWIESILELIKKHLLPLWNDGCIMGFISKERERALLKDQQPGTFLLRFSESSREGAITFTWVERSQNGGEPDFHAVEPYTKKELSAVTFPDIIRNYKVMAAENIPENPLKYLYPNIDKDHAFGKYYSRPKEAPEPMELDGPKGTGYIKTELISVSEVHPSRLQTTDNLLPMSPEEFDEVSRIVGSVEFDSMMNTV
Assay type: cell-based
Procedure: HepG2 cells were pretreated with DMSO alone or DMSO containing each of the compounds at a concentration of 300 μM for 60 min. Cells were then stimulated with IFN-γ (30 ng/ml) for 30 min. Protein extracts of cells were separated by SDS-PAGE and immunoblotted serially with antibodies to pStat1, total Stat1 and β-actin. Blots were stripped between each immunoblotting. The results shown are representative of 2 or more experiments.
Immunoblot assay. The human hepatocellular carcinoma cell line (HepG2) was grown in 6-well plates under standard conditions. Cells were pretreated with compounds (0, 1, 3, 10, 30, 100 and 300 uM) for 1 hour then stimulated under optimal conditions with either interferon gamma (IFN-γ; 30 ng/ml for 30 min) to activate Stat1 or interleukin-6 (IL-6; 30 ng/ml for 30 min) to activate Stat3 (30-31). Cultures were then harvested and proteins extracted using high-salt buffer, as described (Shao et al., 2006). Briefly, extracts were mixed with 2× sodium dodecyl sulfate (SDS) sample buffer (125 mmol/L Tris-HCL pH 6.8; 4% SDS; 20% glycerol; 10% 2-mercaptoethanol) at a 1:1 ratio and heated for 5 minutes at 100° C. Proteins (20 μg) were separated by 7.5% SDS-PAGE and transferred to polyvinylidene fluoride (PVDF) membrane (Millipore, Waltham, Mass.) and immunoblotted. Prestained molecular weight markers (Biorad, Hercules, Calif.) were included in each gel. Membranes were probed serially with antibody against Stat1 pY^701 or Stat3 pY^705 followed by antibody against Stat1 or Stat3 (Transduction labs, Lexington, Ky.) then antibody against β-actin (Abcam, Cambridge, Mass.). Membranes were stripped between antibody probing using Restore™ Western Blot Stripping Buffer (Thermo Fisher Scientific Inc., Waltham, Mass.) per the manufacturer's instructions. Horseradish peroxidase-conjugated goat-anti-mouse IgG was used as the secondary antibody (Invitrogen Carlsbad, Calif.) and the membranes were developed with enhanced chemiluminescence (ECL) detection system (Amersham Life Sciences Inc.; Arlington Heights, Ill.).
EXP IIC. Ligand-mediated pStat3 and pStat1 inhibition assays. […] Briefly, human hepatocellular carcinoma cells (HepG2) are grown in 6-well plates and pretreated with compounds (0, 0.1, 0.3, 1, 3, 10, 30, 100 μM) for 1 hour then stimulated under optimal conditions with either interleukin-6 (IL-6; 30 ng/ml for 30 min) to activate Stat3 or interferon gamma (IFN-γ; 30 ng/ml for 30 min) to activate Stat1. Cells are harvested and proteins extracted using high-salt buffer, mixed with 2× sodium dodecyl sulfate (SDS) sample buffer (125 mmol/L Tris-HCL pH 6.8; 4% SDS; 20% glycerol; 10%2-mercaptoethanol) at a 1:1 ratio then heated for 5 minutes at 100° C. Proteins (20 μg) are separated by 7.5% SDS-PAGE and transferred to polyvinylidene fluoride (PVDF) membrane (Millipore, Waltham, Mass.) and immunoblotted. Membranes are probed serially with antibody against Stat1 pY701 or Stat3 pY705 followed by antibody against Stat1 or Stat3 (Transduction labs, Lexington, Ky.) then antibody against β-actin (Abcam, Cambridge, Mass.). Membranes are stripped between antibody probings using Restore™ Western Blot Stripping Buffer (Thermo Fisher Scientific Inc., Waltham, Mass.) per the manufacturer's instructions. Horseradish peroxidase-conjugated goat-anti-mouse IgG is used as the secondary antibody (Invitrogen Carlsbad, Calif.) and the membranes are developed with enhanced chemiluminescence (ECL) detection system (Amersham Life Sciences Inc.; Arlington Heights, Ill.). Band intensities are quantified by densitometry. The value of each pStat3 band is divided by its corresponding total Stat3 band intensity; the results are normalized to the DMSO-treated control value. This value was plotted as a function of the log compound concentration. The best-fitting curve is determined using 4-Parameter Logistic Model/Dose Response/XLfit 4.2, IDBS software and was used to calculate the IC50 value.
`CCN1C(=O)C(=Cc2ccc(-c3cc(C(=O)O)ccc3Cl)o2)C(=O)N(CC)C1=S` [Cpd30-12, 4-chloro-3-{5-[(1,3-diethyl-4,6-dioxo-2-thioxotetrahydro-5(2H)-pyrimidinylidene)methyl]-2-furyl}benzoic acid] was tested, and the “Stat1 phosphorylation after IFN-γ stimulation” value (from here on “Stat1 phosphorylation”) was “blocked Stat1 phosphorylation”. `O=C(O)c1ccc(C=CC(=O)c2ccc3c(c2)OCCO3)cc1` [Cpd3, 4-[3-(2,3-dihydro-1,4-benzodioxin-6-yl)-3-oxo-1-propen-1-yl]benzoic acid] was tested, and the “Stat1 phosphorylation” value was “did not”. For `CCOc1cc(C=C2C(=O)c3ccccc3C2=O)cc(Cl)c1OCc1cccc(C(=O)O)c1` [Cpd3-2, 3-({2-chloro-4-[(1,3-dioxo-1,3-dihydro-2H-inden-2-ylidene)methyl]-6-ethoxyphenoxy}methyl)benzoic acid], the “Stat1 phosphorylation” value was “did not”.
